Article PMC6941952, “A homogeneous bioluminescent immunoassay to probe cellular signaling pathway regulation” (Communications Biology, 2020)

Tested on: phospho-IκBα (Ser32)
Assay: NanoBiT cell-based immunoassay, phosphorylated IκBα in MCF-7 cells
Parameters: species or system human
Conditions: for Raw data / Subtract reagent background: TNF
Experimental: Prior to NanoBiT Cell-Based Immunoassay, 50,000 cells were seeded in 160 µl of complete growth media per well of a 96-well plate and incubated overnight. The cells were checked under microscope and it was determined that 50,000 cells per well in 96-well plate is under 90% confluency for all cells tested. If necessary, the cell culture media were replaced with serum-free media after the cells were stably adherent on the plate and incubated overnight. To treat cells with activators or inhibitors, medium was changed to 30 µl of medium containing inhibitors. If activation of a specific pathway is needed, the cells were stimulated with 10 µl of medium containing activators. To lyse the cells, 10 µl of lysis buffer containing 0.1% digitonin diluted in 1X immunoassay buffer with protease and phosphatase inhibitors was added and the plates were mixed vigorously for 20 min. Then, 50 µl of an antibody mix containing two primary antibodies against the target protein and NanoBiT detecting antibodies (0.3 µl each per well), diluted in 1X immunoassay buffer was added to the lysates. The plates were incubated at 23 °C for 90 min, followed by the addition of 25 µl of Nano-Glo® reagent consisting of Nano-Glo® Luciferase Assay Substrate mixed with 1X immunoassay buffer. Luminescence was measured using a plate-reading luminometer.
In all, 50,000 MCF-7 cells were seeded in 160 µl complete growth medium per well of a 96-well plate and incubated overnight. Half of the cells were treated with 50 ng per ml TNFα and half with vehicle. Cells were lysed as described above and a mixture of NanoBiT secondary antibodies with primary antibodies at the matrix concentrations described in Fig. 2a were added. After 90 min incubation, the Nano-Glo® reagent was added to the reactions as described above and luminescence was measured using a plate-reading luminometer.
Single dose or dose response inhibitor treatments were performed prior to activation of the pathways as follows. For IκBα, the cells were treated in 30 µl medium with IKK16 or MG132 for 60 min before the addition of 10 µl of DMEM containing appropriate concentration of TNFα. To measure phosphorylation of AKT or STAT3, the corresponding NanoBiT immunoassays were developed with MCF-7 or A431 cells, respectively, according the same scheme used to develop the IκBα assay using the primary antibodies for AKT and STAT3 described in the reagents section. For the AKT assay, MCF-7 cells were incubated overnight in phenol-red free DMEM medium (Gibco #21063-029) without serum. Treatment with LY294002 was performed in 30 µl medium and cells were incubated for 60 min before the addition of 1 µM Insulin. To measure STAT3 phosphorylation, A431 cells were incubated overnight in DMEM medium without serum. […] After addition of the stimulators, the cells were incubated for additional times as follows. IκBα phosphorylation and degradation analyses required both time courses and single time points as described in figures. […] The NanoBiT immunoassay protocol was followed as described above.
All 96-well assay plates were read using a GloMax® 96 Microplate Luminometer from Promega. The instrument was set to 0.5 s integration time. In order to obtain net change of signal, the reagent background values (signal from the well containing all reagent except primary antibodies) were subtracted from the sample values. To plot and analyze the data, Microsoft Excel and GraphPad Prism® Software were used. IC50 values were determined by using a nonlinear regression fit to a sigmoidal dose response (variable slope).

[1] = plate #1, IkB Ab #1 75 ng/ml, P-IkB Ab #1 150 ng/ml
[2] = plate #1, IkB Ab #1 75 ng/ml, P-IkB Ab #1 300 ng/ml
[3] = plate #1, IkB Ab #1 75 ng/ml, P-IkB Ab #1 600 ng/ml
[4] = plate #1, IkB Ab #1 75 ng/ml, P-IkB Ab #1 1200 ng/ml
[5] = plate #1, IkB Ab #1 150 ng/ml, P-IkB Ab #1 75 ng/ml
[6] = plate #1, IkB Ab #1 150 ng/ml, P-IkB Ab #1 150 ng/ml
[7] = plate #1, IkB Ab #1 150 ng/ml, P-IkB Ab #1 300 ng/ml
[8] = plate #1, IkB Ab #1 150 ng/ml, P-IkB Ab #1 600 ng/ml
[9] = plate #1, IkB Ab #1 150 ng/ml, P-IkB Ab #1 1200 ng/ml
[10] = plate #1, IkB Ab #1 300 ng/ml, P-IkB Ab #1 75 ng/ml
[11] = plate #1, IkB Ab #1 300 ng/ml, P-IkB Ab #1 150 ng/ml
[12] = plate #1, IkB Ab #1 300 ng/ml, P-IkB Ab #1 300 ng/ml
[13] = plate #1, IkB Ab #1 300 ng/ml, P-IkB Ab #1 600 ng/ml
[14] = plate #1, IkB Ab #1 300 ng/ml, P-IkB Ab #1 1200 ng/ml
[15] = plate #1, IkB Ab #1 600 ng/ml, P-IkB Ab #1 75 ng/ml
[16] = plate #1, IkB Ab #1 600 ng/ml, P-IkB Ab #1 150 ng/ml
[17] = plate #1, IkB Ab #1 600 ng/ml, P-IkB Ab #1 300 ng/ml
[18] = plate #1, IkB Ab #1 600 ng/ml, P-IkB Ab #1 600 ng/ml
[19] = plate #1, IkB Ab #1 600 ng/ml, P-IkB Ab #1 1200 ng/ml
[20] = plate #1, IkB Ab #1 1200 ng/ml, P-IkB Ab #1 75 ng/ml
[21] = plate #1, IkB Ab #1 1200 ng/ml, P-IkB Ab #1 150 ng/ml
[22] = plate #1, IkB Ab #1 1200 ng/ml, P-IkB Ab #1 300 ng/ml
[23] = plate #1, IkB Ab #1 1200 ng/ml, P-IkB Ab #1 600 ng/ml
[24] = plate #1, IkB Ab #1 1200 ng/ml, P-IkB Ab #1 1200 ng/ml
[25] = plate #2, IkB Ab #2 75 ng/ml, P-IkB Ab #1 75 ng/ml

## TNFα
[1]
  Raw data: 38800
  Subtract reagent background: 19890
[2]
  Raw data: 36190
  Subtract reagent background: 17280
[3]
  Raw data: 29500
  Subtract reagent background: 10590
[4]
  Raw data: 23430
  Subtract reagent background: 4520
[5]
  Raw data: 31770
  Subtract reagent background: 12860
[6]
  Raw data: 37260
  Subtract reagent background: 18350
[7]
  Raw data: 34880
  Subtract reagent background: 15970
[8]
  Raw data: 27610
  Subtract reagent background: 8700
[9]
  Raw data: 22810
  Subtract reagent background: 3900
[10]
  Raw data: 28900
  Subtract reagent background: 9990
[11]
  Raw data: 32520
  Subtract reagent background: 13610
[12]
  Raw data: 32030
  Subtract reagent background: 13120
[13]
  Raw data: 24980
  Subtract reagent background: 6070
[14]
  Raw data: 21690
  Subtract reagent background: 2780
[15]
  Raw data: 24730
  Subtract reagent background: 5820
[16]
  Raw data: 27710
  Subtract reagent background: 8800
[17]
  Raw data: 26820
  Subtract reagent background: 7910
[18]
  Raw data: 24690
  Subtract reagent background: 5780
[19]
  Raw data: 22170
  Subtract reagent background: 3260
[20]
  Raw data: 22890
  Subtract reagent background: 3980
[21]
  Raw data: 24970
  Subtract reagent background: 6060
[22]
  Raw data: 24110
  Subtract reagent background: 5200
[23]
  Raw data: 24380
  Subtract reagent background: 5470
[24]
  Raw data: 22870
  Subtract reagent background: 3960
Plate #1, IkB Ab #1 (Mouse) 75 ng/ml, P-IkB Ab #1 (Rabbit) 150 ng/ml
  Fold change (TNF-treated /Non-treated): 8.219
Plate #1, IkB Ab #1 (Mouse) 75 ng/ml, P-IkB Ab #1 (Rabbit) 150 ng/ml, listed as TNF
  Fold change (TNF-treated /Non-treated): 8.2
Plate #1, IkB Ab #1 (Mouse) 75 ng/ml, P-IkB Ab #1 (Rabbit) 300 ng/ml
  Fold change (TNF-treated /Non-treated): 4.364
Plate #1, IkB Ab #1 (Mouse) 75 ng/ml, P-IkB Ab #1 (Rabbit) 300 ng/ml, listed as TNF
  Fold change (TNF-treated /Non-treated): 4.4
Plate #1, IkB Ab #1 (Mouse) 75 ng/ml, P-IkB Ab #1 (Rabbit) 600 ng/ml
  Fold change (TNF-treated /Non-treated): 2.688
Plate #1, IkB Ab #1 (Mouse) 75 ng/ml, P-IkB Ab #1 (Rabbit) 600 ng/ml, listed as TNF
  Fold change (TNF-treated /Non-treated): 2.7
Plate #1, IkB Ab #1 (Mouse) 75 ng/ml, P-IkB Ab #1 (Rabbit) 1200 ng/ml
  Fold change (TNF-treated /Non-treated): 1.8374
Plate #1, IkB Ab #1 (Mouse) 75 ng/ml, P-IkB Ab #1 (Rabbit) 1200 ng/ml, listed as TNF
  Fold change (TNF-treated /Non-treated): 1.8
Plate #1, IkB Ab #1 (Mouse) 150 ng/ml, P-IkB Ab #1 (Rabbit) 150 ng/ml
  Fold change (TNF-treated /Non-treated): 9.557
Plate #1, IkB Ab #1 (Mouse) 150 ng/ml, P-IkB Ab #1 (Rabbit) 150 ng/ml, listed as TNF
  Fold change (TNF-treated /Non-treated): 9.6
Plate #1, IkB Ab #1 (Mouse) 150 ng/ml, P-IkB Ab #1 (Rabbit) 300 ng/ml
  Fold change (TNF-treated /Non-treated): 4.656
Plate #1, IkB Ab #1 (Mouse) 150 ng/ml, P-IkB Ab #1 (Rabbit) 300 ng/ml, listed as TNF
  Fold change (TNF-treated /Non-treated): 4.7
Plate #1, IkB Ab #1 (Mouse) 150 ng/ml, P-IkB Ab #1 (Rabbit) 600 ng/ml
  Fold change (TNF-treated /Non-treated): 2.797
Plate #1, IkB Ab #1 (Mouse) 150 ng/ml, P-IkB Ab #1 (Rabbit) 600 ng/ml, listed as TNF
  Fold change (TNF-treated /Non-treated): 2.8
Plate #1, IkB Ab #1 (Mouse) 150 ng/ml, P-IkB Ab #1 (Rabbit) 1200 ng/ml
  Fold change (TNF-treated /Non-treated): 0.8904
Plate #1, IkB Ab #1 (Mouse) 150 ng/ml, P-IkB Ab #1 (Rabbit) 1200 ng/ml, listed as TNF
  Fold change (TNF-treated /Non-treated): 0.9
Plate #1, IkB Ab #1 (Mouse) 300 ng/ml, P-IkB Ab #1 (Rabbit) 150 ng/ml, listed as TNF
  Fold change (TNF-treated /Non-treated): 4.1
Plate #1, IkB Ab #1 (Mouse) 300 ng/ml, P-IkB Ab #1 (Rabbit) 300 ng/ml, listed as TNF
  Fold change (TNF-treated /Non-treated): 3.3
Plate #1, IkB Ab #1 (Mouse) 300 ng/ml, P-IkB Ab #1 (Rabbit) 600 ng/ml, listed as TNF
  Fold change (TNF-treated /Non-treated): 1.6
Plate #1, IkB Ab #1 (Mouse) 300 ng/ml, P-IkB Ab #1 (Rabbit) 1200 ng/ml, listed as TNF
  Fold change (TNF-treated /Non-treated): 1.0
Plate #1, IkB Ab #1 (Mouse) 600 ng/ml, P-IkB Ab #1 (Rabbit) 75 ng/ml, listed as TNF
  Fold change (TNF-treated /Non-treated): 4.9
Plate #1, IkB Ab #1 (Mouse) 600 ng/ml, P-IkB Ab #1 (Rabbit) 150 ng/ml, listed as TNF
  Fold change (TNF-treated /Non-treated): 5.1
Plate #1, IkB Ab #1 (Mouse) 600 ng/ml, P-IkB Ab #1 (Rabbit) 300 ng/ml, listed as TNF
  Fold change (TNF-treated /Non-treated): 3.0
Plate #1, IkB Ab #1 (Mouse) 600 ng/ml, P-IkB Ab #1 (Rabbit) 600 ng/ml, listed as TNF
  Fold change (TNF-treated /Non-treated): 2.3
Plate #1, IkB Ab #1 (Mouse) 600 ng/ml, P-IkB Ab #1 (Rabbit) 1200 ng/ml, listed as TNF
  Fold change (TNF-treated /Non-treated): 1.1
Plate #1, IkB Ab #1 (Mouse) 1200 ng/ml, P-IkB Ab #1 (Rabbit) 75 ng/ml, listed as TNF
  Fold change (TNF-treated /Non-treated): 2.5
Plate #1, IkB Ab #1 (Mouse) 1200 ng/ml, P-IkB Ab #1 (Rabbit) 150 ng/ml, listed as TNF
  Fold change (TNF-treated /Non-treated): 3.0
Plate #1, IkB Ab #1 (Mouse) 1200 ng/ml, P-IkB Ab #1 (Rabbit) 300 ng/ml, listed as TNF
  Fold change (TNF-treated /Non-treated): 1.9
Plate #1, IkB Ab #1 (Mouse) 1200 ng/ml, P-IkB Ab #1 (Rabbit) 600 ng/ml, listed as TNF
  Fold change (TNF-treated /Non-treated): 2.0
Plate #1, IkB Ab #1 (Mouse) 1200 ng/ml, P-IkB Ab #1 (Rabbit) 1200 ng/ml, listed as TNF
  Fold change (TNF-treated /Non-treated): 1.8
[25]
  Raw data: 20520
  Subtract reagent background: 2000
Plate #2, IkB Ab #2 75 ng/ml, P-IkB Ab #1 150 ng/ml
  Raw data: 20690
